These results are taken from US7183252B2, “Indole peptidomimetics as thrombin receptor antagonists” (Ortho-McNeil Pharmaceutical, Inc., priority 1999, dated 2007).

Where two headings read alike, the source gives them in different places.

Assay [1] deals with gel-filtered platelets. In words: In vitro inhibition of thrombin-induced gel-filtered platelet aggregation. Particulars: human gel-filtered platelets, agonist thrombin 50 μL of 1 unit/mL, read-out: Thrmb IC50 (Thrombin-induced aggregation of gel-filtered platelets). The assay is classed as cell-based. The procedure, abridged: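 Gel-filtered (Sepharose 2B) human platelets from citrated PRP, 2×10^7 per sample, in Tyrode's buffer pH 7.4 with BSA and added calcium, preincubated with test compound. Aggregation induced by thrombin (50 μL of 1 unit/mL) and followed as light transmission over 3 min. Inhibition is taken relative to control-treated platelets.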

Assay [2] addresses T1, thrombin receptor (PAR-1) (Homo sapiens, UniProt P25116).
T1 construct: CHRF membranes (Jones, Biochim. Biophys. Acta 1992, 1136, 272) are thawed from −70° C; endogenous in cells; host or cells: CHRF cell membranes
T1 sequence (P25116 22-425): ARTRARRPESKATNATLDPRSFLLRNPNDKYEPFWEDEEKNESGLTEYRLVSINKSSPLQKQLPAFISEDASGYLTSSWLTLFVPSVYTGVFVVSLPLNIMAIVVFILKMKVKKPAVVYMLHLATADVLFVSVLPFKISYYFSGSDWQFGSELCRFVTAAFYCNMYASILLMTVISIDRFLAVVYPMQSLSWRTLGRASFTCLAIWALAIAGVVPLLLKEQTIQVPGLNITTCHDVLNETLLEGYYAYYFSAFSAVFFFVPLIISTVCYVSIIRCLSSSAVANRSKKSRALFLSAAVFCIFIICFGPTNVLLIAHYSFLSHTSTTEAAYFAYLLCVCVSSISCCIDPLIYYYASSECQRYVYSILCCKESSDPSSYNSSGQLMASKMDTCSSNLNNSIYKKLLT
In words: In vitro thrombin receptor binding assay (CHRF membranes). Particulars: tritiated 721-40 radioligand, read-out: Bndg IC50 (Thrombin receptor binding). In short, it runs like this:
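CHRF cell membranes incubated 30 min with tritiated peptide agonist 721–40 and compound at 3.7 μg/mL final (0.6% DMSO) in HEPES/MgCl2/BSA buffer. Nonspecific binding defined with unlabeled 721–40; bound radioactivity counted after filtration onto PEI-treated filters.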

Take `NCCNC(=O)[C@@H](Cc1ccncc1)NC(=O)[C@@H](Cc1ccc(F)c(F)c1)NC(=O)c1ccc2c(CN3CCCC3)cn(Cc3c(Cl)cccc3Cl)c2c1` [Compound 176]: the IC50 amounted to 45700 nM in assay [1] and 43200 nM in assay [2].
On to `NC(=O)CC[C@H](NC(=O)[C@H](Cc1ccc(F)c(F)c1)NC(=O)Nc1ccc2c(CN3CCCC3)cn(Cc3c(Cl)cccc3Cl)c2c1)C(=O)NCc1ccccc1` [Compound 103], for which the half-maximal inhibitory concentration (IC50) was 540 nM in assay [1] (Platelet) and 1200 nM in assay [2].
With `N=C(N)NCCC[C@H](NC(=O)[C@H](Cc1ccc(F)c(F)c1)NC(=O)Nc1ccc2c(CN3CCCC3)cn(CC3CCCCC3)c2c1)C(=O)NCc1ccccc1` [Compound 74], the 50% inhibitory concentration (IC50) came to 2900 nM in assay [1] (Platelet) and 560 nM in assay [2].
With `Cc1ccccc1Cn1cc(CN2CCCC2)c2ccc(NC(=O)N[C@@H](Cc3ccc(F)c(F)c3)C(=O)N[C@@H](CCCNC(=N)N)C(=O)NCCc3ccccc3)cc21` [Compound 57], the IC50 in assay [1] (Platelet) stood at 1800 nM; in assay [2], 300 nM.
Consider `Cn1cnc(CCNC(=O)[C@H](CCCN)NC(=O)[C@H](Cc2ccc(F)c(F)c2)NC(=O)Nc2ccc3c(CN4CCCC4)cn(Cc4c(Cl)cccc4Cl)c3c2)c1` [Compound 124], for which the IC50 in assay [1] was 440 nM; in assay [2], 1200 nM.
For the compound `Cc1ccccc1Cn1cc(CN2CCCC2)c2ccc(NC(=O)N[C@@H](Cc3ccc(Cl)cc3)C(=O)N[C@@H](CCCNC(=N)N)C(=O)NCc3ccccc3)cc21` [Compound 48], the results for the 50% inhibitory concentration (IC50) in assay [1] (Platelet) and in assay [2] were 500 nM and 7600 nM, respectively.
For the compound `CCSC[C@H](NC(=O)[C@H](Cc1ccc(Cl)cc1)NC(=O)Nc1ccc2c(CN3CCCC3)cn(Cc3c(Cl)cccc3Cl)c2c1)C(=O)NCCN` [Compound 149], the IC50 in assay [1] (Platelet) was 1200 nM; in assay [2], 150 nM.
Regarding `CCN(CC)Cc1cn(Cc2cccc(C)c2)c2cc(NC(=O)N[C@@H](Cc3ccc(OC(C)C)cc3)C(=O)N[C@@H](CCCNC(=N)N)C(=O)NCc3ccccc3)ccc12` [Compound 43], the IC50 came out at 33500 nM in assay [1] (Platelet) and 5000 nM in assay [2].
With `CN(Cc1cn(Cc2c(Cl)cccc2Cl)c2cc(NC(=O)N[C@@H](Cc3ccc(Cl)cc3)C(=O)N[C@@H](CCCN)C(=O)NC3Cc4ccccc4C3)ccc12)CC1OCCO1` [Compound 122], the IC50 in assay [1] (Platelet) stood at 3500 nM; in assay [2], 10500 nM.
Consider `COc1ccc(C[C@H](NC(=O)Nc2ccc3c(CN4CCCC4)cn(Cc4ccc(C(F)(F)F)cc4)c3c2)C(=O)N[C@@H](CCCNC(=N)N)C(=O)NCc2ccccc2)cc1` [Compound 18], for which the IC50 in assay [1] (Platelet) is 14000 nM; in assay [2], 3700 nM.
As to `COc1ccc(C[C@H](NC(=O)Nc2ccc3c(CN4CCCC4)cn(Cc4ccccc4)c3c2)C(=O)N[C@@H](CCCNC(=N)N)C(=O)NCc2ccccc2)cc1` [Compound 22], the results for the half-inhibitory concentration (IC50) in assay [1] (Platelet) and in assay [2] were 3000 nM and 4000 nM, respectively.
As to `NCC[C@H](NC(=O)[C@H](Cc1ccc(F)c(F)c1)NC(=O)Nc1ccc2c(CN3CCCC3)cn(Cc3c(Cl)cccc3Cl)c2c1)C(=O)NCc1ccc([N+](=O)[O-])cc1` [Compound 158], the figures for the IC50 in assay [1] and in assay [2] were 740 nM and 1800 nM, respectively.
`N=C(N)NCCC[C@H](NC(=O)[C@H](Cc1ccc(F)c(F)c1)NC(=O)Nc1ccc2c(CN3CCCC3)cn(Cc3c(Cl)cccc3Cl)c2c1)C(=O)NCc1ccccc1` [Compound 46, L-Argininamide, 3,4-difluoro-N-[[[1-[(2,6-dichlorophenyl)methyl]-3-(1-pyrrolidinylmethyl)-1H-indol-6-yl]amino]carbonyl]-L-phenylalanyl-N-(phenylmethyl)-]: the results for the 50% inhibitory concentration (IC50) in assay [1] and in assay [2] were 280 nM and 470 nM, respectively.
Turning to `N=C(N)NCCC[C@H](NC(=O)[C@@H](Cc1ccc(F)c(F)c1)NC(=O)Nc1ccc2c(CN3CCCC3)cn(Cc3c(Cl)cccc3Cl)c2c1)C(=O)NCc1ccccc1` [Compound 84], the IC50 in assay [1] worked out at 14900 nM; in assay [2], 3200 nM.
Consider `COc1ccc(C[C@H](NC(=O)Nc2ccc3c(CNC4CC4)cn(Cc4ccc(F)cc4)c3c2)C(=O)N[C@@H](CCCNC(=N)N)C(=O)NCc2ccccc2)cc1` [Compound 45], for which the IC50 is over 10000 nM in assay [1] (Platelet) and 13900 nM in assay [2].
Consider `COc1ccc(C[C@H](NC(=O)Nc2ccc3c(CN4CCCC4)cn(Cc4ccc(F)c(F)c4)c3c2)C(=O)N[C@@H](CCCNC(=N)N)C(=O)NCc2ccccc2)cc1` [Compound 21], for which the half-maximal inhibitory concentration (IC50) was determined as 3200 nM in assay [1] (Platelet) and 1100 nM in assay [2].

What is called IC50 is the point on the concentration scale where inhibition reaches its midpoint.
